The source of these data is US11667649B2, “Heteroaromatic macrocyclic ether chemotherapeutic agents” (Nuvalent, Inc., priority 2020, dated 2023).

The subject of this experiment is TPM3-NTRK1-wt IC50 / primary target (e.g. CD74-ROS1-wt) IC50, Ba/F3 cells. As to the kind of experiment: Cell assay TRKA selectivity (TRKA potency divided by primary target potency). The format is cell-based. Particulars: for TPM3-NTRK1-wt/CD74-ROS1-G2032R: TRKA selectivity ratio: TPM3-NTRK1-wt IC50 / CD74-ROS1-G2032R IC50, Ba/F3 cells; for TPM3-NTRK1-wt/CD74-ROS1-wt: TRKA selectivity ratio: TPM3-NTRK1-wt IC50 / CD74-ROS1-wt IC50, Ba/F3 cells; for TPM3-NTRK1-wt/EML4-ALK-L1196M-G1202R: TRKA selectivity ratio: TPM3-NTRK1-wt IC50 / EML4-ALK-L1196M-G1202R IC50, Ba/F3 cells; for TPM3-NTRK1-wt/EML4-ALK-wt: TRKA selectivity ratio: TPM3-NTRK1-wt IC50 / EML4-ALK-wt IC50, Ba/F3 cells. The essentials:
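Ratio of TRKA to primary-target cellular IC50 (e.g. TPM3-NTRK1-wt/CD74-ROS1-wt), grouped into bins A >30, B >10, C ≥1, D <1. Each IC50 came from engineered Ba/F3 fusion lines grown without IL-3, dosed for 72 h and read as CellTiter-Glo luminescence, with a four-parameter logistic fit.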

On to `CCn1ncc2c1-c1cnc(N)c(c1)OCc1cc(F)ccc1-c1nccn1C2` [Example 34, 3-ethyl-16-fluoro-20-oxa-3,4,8,11,23-pentaazapentacyclo[19.3.1.0^2,^6.0^8,^12.0^13,^18]pentacosa-1(24),2(6),4,9,11,13,15,17,21(25),22-decaen-22-amine], for which the TPM3-NTRK1-wt/CD74-ROS1-G2032R entry is “A (bin A for very high selectivity, ratio>30-fold)”; the TPM3-NTRK1-wt/CD74-ROS1-wt result is recorded as “A (bin A for very high selectivity, ratio>30-fold)”; the TPM3-NTRK1-wt/EML4-ALK-L1196M-G1202R entry is on record as “B (bin B for high selectivity, ratio>10-fold)”; the TPM3-NTRK1-wt/EML4-ALK-wt result is given as “A (bin A for very high selectivity, ratio>30-fold)”.

For `CCn1ncc2c1-c1cnc(N)c(c1)OC(C)c1cc(F)ccc1-c1cnccc1C2` (stereo not shown) [Example 35, 3-ethyl-17-fluoro-20-methyl-21-oxa-3,4,11,24-tetraazapentacyclo[20.3.1.0^2,^6.0^8,^13.0^14,^19]hexacosa-1(25),2(6),4,8(13),9,11,14,16,18,22(26),23-undecaen-23-amine], the TPM3-NTRK1-wt/CD74-ROS1-G2032R result is “A (bin A for very high selectivity, ratio>30-fold)”; the TPM3-NTRK1-wt/CD74-ROS1-wt result is “A (bin A for very high selectivity, ratio>30-fold)”; the TPM3-NTRK1-wt/EML4-ALK-L1196M-G1202R entry is “C (bin C for moderate selectivity, ratio≥1)”; the TPM3-NTRK1-wt/EML4-ALK-wt entry was “A (bin A for very high selectivity, ratio>30-fold)”.

For the molecule `CCn1ncc2c1-c1cnc(N)c(c1)OC(C)c1cc(F)ccc1-c1ccncc1C2` (stereo not shown) [Example 36, 3-ethyl-17-fluoro-20-methyl-21-oxa-3,4,10,24-tetraazapentacyclo[20.3.1.0^2,^6.0^8,^13.0^14,^19]hexacosa-1(25),2(6),4,8(13),9,11,14,16,18,22(26),23-undecaen-23-amine], the TPM3-NTRK1-wt/CD74-ROS1-G2032R entry is listed as “A (bin A for very high selectivity, ratio>30-fold)”; the TPM3-NTRK1-wt/CD74-ROS1-wt entry is “A (bin A for very high selectivity, ratio>30-fold)”; the TPM3-NTRK1-wt/EML4-ALK-L1196M-G1202R entry is given as “C (bin C for moderate selectivity, ratio≥1)”; the TPM3-NTRK1-wt/EML4-ALK-wt result is recorded as “A (bin A for very high selectivity, ratio>30-fold)”.

As to `CC1Oc2cc(cnc2N)-c2c(cnn2C2CCC2)Cn2ccnc2-c2ccc(F)cc21` (stereo not shown) [Example 37, 3-cyclobutyl-16-fluoro-19-methyl-20-oxa-3,4,8,11,23-pentaazapentacyclo[19.3.1.0^2,^6.0^8,^12.0^13,^18]pentacosa-1(24),2(6),4,9,11,13,15,17,21(25),22-decaen-22-amine], the TPM3-NTRK1-wt/CD74-ROS1-G2032R entry is recorded as “A (bin A for very high selectivity, ratio>30-fold)”; the TPM3-NTRK1-wt/CD74-ROS1-wt entry is on record as “A (bin A for very high selectivity, ratio>30-fold)”; the TPM3-NTRK1-wt/EML4-ALK-L1196M-G1202R entry is given as “A (bin A for very high selectivity, ratio>30-fold)”; the TPM3-NTRK1-wt/EML4-ALK-wt result is reported as “A (bin A for very high selectivity, ratio>30-fold)”.

With `CCn1ncc2c1-c1cnc(N)c(c1)OC(C)c1cc(F)ccc1-n1cncc1C2` (stereo not shown) [Example 38, 3-ethyl-16-fluoro-19-methyl-20-oxa-3,4,10,12,23-pentaazapentacyclo[19.3.1.0^2,^6.0^8,^12.0^13,^18]pentacosa-1(24),2(6),4,8,10,13,15,17,21(25),22-decaen-22-amine], the TPM3-NTRK1-wt/CD74-ROS1-G2032R entry is “A (bin A for very high selectivity, ratio>30-fold)”; the TPM3-NTRK1-wt/CD74-ROS1-wt result was “A (bin A for very high selectivity, ratio>30-fold)”; the TPM3-NTRK1-wt/EML4-ALK-L1196M-G1202R result is recorded as “C (bin C for moderate selectivity, ratio≥1)”; the TPM3-NTRK1-wt/EML4-ALK-wt result is “B (bin B for high selectivity, ratio>10-fold)”.

On to `CC1Oc2cc(cnc2N)-c2c(cnn2CCF)Cn2ccnc2-c2ccc(F)cc21` (stereo not shown) [Example 39, 16-fluoro-3-(2-fluoroethyl)-19-methyl-20-oxa-3,4,8,11,23-pentaazapentacyclo[19.3.1.0^2,^6.0^8,^12.0^13,^18]pentacosa-1(24),2(6),4,9,11,13,15,17,21(25),22-decaen-22-amine], for which the TPM3-NTRK1-wt/CD74-ROS1-G2032R entry was “A (bin A for very high selectivity, ratio>30-fold)”; the TPM3-NTRK1-wt/CD74-ROS1-wt entry is listed as “A (bin A for very high selectivity, ratio>30-fold)”; the TPM3-NTRK1-wt/EML4-ALK-L1196M-G1202R result was “C (bin C for moderate selectivity, ratio≥1)”; the TPM3-NTRK1-wt/EML4-ALK-wt entry is “A (bin A for very high selectivity, ratio>30-fold)”.

Regarding `CC1Oc2cc(cnc2N)-c2c(cnn2CC(F)F)Cn2ccnc2-c2ccc(F)cc21` (stereo not shown) [Example 40, 3-(2,2-difluoroethyl)-16-fluoro-19-methyl-20-oxa-3,4,8,11,23-pentaazapentacyclo[19.3.1.0^2,^6.0^8,^12.0^13,^18]pentacosa-1(24),2(6),4,9,11,13,15,17,21(25),22-decaen-22-amine], the TPM3-NTRK1-wt/CD74-ROS1-G2032R result was “A (bin A for very high selectivity, ratio>30-fold)”; the TPM3-NTRK1-wt/CD74-ROS1-wt entry is “A (bin A for very high selectivity, ratio>30-fold)”; the TPM3-NTRK1-wt/EML4-ALK-L1196M-G1202R result is “A (bin A for very high selectivity, ratio>30-fold)”; the TPM3-NTRK1-wt/EML4-ALK-wt entry is recorded as “A (bin A for very high selectivity, ratio>30-fold)”.

For `CCn1ncc2c1-c1cnc(N)c(c1)OCc1cc(F)ccc1-n1nccc1C2` [Example 41, 3-ethyl-16-fluoro-20-oxa-3,4,11,12,23-pentaazapentacyclo[19.3.1.0^2,^6.0^8,^12.0^13,^18]pentacosa-1(24),2(6),4,8,10,13,15,17,21(25),22-decaen-22-amine], the TPM3-NTRK1-wt/CD74-ROS1-G2032R result is on record as “A (bin A for very high selectivity, ratio>30-fold)”; the TPM3-NTRK1-wt/CD74-ROS1-wt result is “A (bin A for very high selectivity, ratio>30-fold)”; the TPM3-NTRK1-wt/EML4-ALK-L1196M-G1202R result is listed as “B (bin B for high selectivity, ratio>10-fold)”; the TPM3-NTRK1-wt/EML4-ALK-wt result is “A (bin A for very high selectivity, ratio>30-fold)”.

In the case of `CCn1ncc2c1-c1cnc(N)c(c1)OC(C)c1cc(F)ccc1-c1ncncc1C2` (stereo not shown) [Example 42, 3-ethyl-17-fluoro-20-methyl-21-oxa-3,4,10,12,24-pentaazapentacyclo[20.3.1.0^2,^6.0^8,^13.0^14,^19]hexacosa-1(25),2(6),4,8(13),9,11,14,16,18,22(26),23-undecaen-23-amine], the TPM3-NTRK1-wt/CD74-ROS1-G2032R result is listed as “A (bin A for very high selectivity, ratio>30-fold)”; the TPM3-NTRK1-wt/CD74-ROS1-wt entry is given as “A (bin A for very high selectivity, ratio>30-fold)”; the TPM3-NTRK1-wt/EML4-ALK-L1196M-G1202R result was “B (bin B for high selectivity, ratio>10-fold)”; the TPM3-NTRK1-wt/EML4-ALK-wt entry is “A (bin A for very high selectivity, ratio>30-fold)”.

For `CCn1ncc2c1-c1cnc(N)c(c1)O[C@H](C)c1cc(F)ccc1-n1nncc1C2` [Example 43, (19R)-3-ethyl-16-fluoro-19-methyl-20-oxa-3,4,10,11,12,23-hexaazapentacyclo[19.3.1.0^2,^6.0^8,^12.0^13,^18]pentacosa-1(24),2(6),4,8,10,13,15,17,21(25),22-decaen-22-amine], the TPM3-NTRK1-wt/CD74-ROS1-G2032R result is listed as “A (bin A for very high selectivity, ratio>30-fold)”; the TPM3-NTRK1-wt/CD74-ROS1-wt result is on record as “A (bin A for very high selectivity, ratio>30-fold)”; the TPM3-NTRK1-wt/EML4-ALK-L1196M-G1202R entry is given as “C (bin C for moderate selectivity, ratio≥1)”; the TPM3-NTRK1-wt/EML4-ALK-wt entry is “B (bin B for high selectivity, ratio>10-fold)”.
